Experimental data as given in patent US10081624B2, “Heterocyclic compound” (Takeda Pharmaceutical Company Limited, priority 2014, dated 2018).

Target: T1, HDAC6 enzyme (Homo sapiens, UniProt Q9UBN7)
T1 construct: prepared by transducing full length HDAC1 and HDAC6 genes into Sf-9 insect cells; GST; purchased SignalChem; host or cells: Sf-9 insect cells
T1 sequence (Q9UBN7 1-1215): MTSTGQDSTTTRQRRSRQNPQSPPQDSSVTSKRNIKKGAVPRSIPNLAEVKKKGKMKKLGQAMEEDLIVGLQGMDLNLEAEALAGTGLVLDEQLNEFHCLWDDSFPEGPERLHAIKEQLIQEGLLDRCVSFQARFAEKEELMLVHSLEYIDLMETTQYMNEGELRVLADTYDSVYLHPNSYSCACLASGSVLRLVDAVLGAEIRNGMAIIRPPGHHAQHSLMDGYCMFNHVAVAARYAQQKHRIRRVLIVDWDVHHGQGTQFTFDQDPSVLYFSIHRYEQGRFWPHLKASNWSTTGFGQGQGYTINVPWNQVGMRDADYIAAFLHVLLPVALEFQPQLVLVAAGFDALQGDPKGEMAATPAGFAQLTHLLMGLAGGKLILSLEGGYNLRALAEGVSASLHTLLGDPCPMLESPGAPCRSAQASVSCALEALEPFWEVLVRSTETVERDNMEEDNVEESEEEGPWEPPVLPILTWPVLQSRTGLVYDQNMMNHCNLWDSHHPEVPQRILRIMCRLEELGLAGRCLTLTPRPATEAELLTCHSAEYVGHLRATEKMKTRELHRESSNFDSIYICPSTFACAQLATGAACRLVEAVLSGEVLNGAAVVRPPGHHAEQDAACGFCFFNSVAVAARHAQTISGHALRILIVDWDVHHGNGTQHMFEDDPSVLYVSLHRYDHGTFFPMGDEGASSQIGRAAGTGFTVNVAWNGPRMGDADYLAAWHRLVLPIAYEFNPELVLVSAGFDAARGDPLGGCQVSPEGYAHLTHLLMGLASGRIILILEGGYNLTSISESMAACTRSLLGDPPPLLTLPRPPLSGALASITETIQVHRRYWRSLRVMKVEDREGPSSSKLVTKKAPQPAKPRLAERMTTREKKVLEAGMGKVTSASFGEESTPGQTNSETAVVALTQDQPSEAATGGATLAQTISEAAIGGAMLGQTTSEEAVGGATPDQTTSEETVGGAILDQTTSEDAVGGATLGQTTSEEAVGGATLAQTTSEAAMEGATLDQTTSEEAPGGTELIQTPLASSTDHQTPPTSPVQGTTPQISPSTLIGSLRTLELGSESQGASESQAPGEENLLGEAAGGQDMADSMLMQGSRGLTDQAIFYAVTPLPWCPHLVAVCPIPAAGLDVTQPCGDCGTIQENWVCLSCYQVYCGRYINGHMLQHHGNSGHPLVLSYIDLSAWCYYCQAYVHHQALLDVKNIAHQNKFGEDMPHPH
Experiment: HDAC6 enzyme inhibitory assay (HDAC-Glo I/II Assay kit)
Type: biochemical
Conditions: 1 μM test compound; read-out: HDAC6 inhibitory rate (%) (1 μM)
Procedure: HDAC1 enzyme and HDAC6 enzyme each prepared by transducing full length HDAC1 and HDAC6 genes into Sf-9 insect cells and purifying by GST affinity column were purchased from SignalChem. Using these enzymes, HDAC1 and/or HDAC6 enzyme inhibitory activities of the compound of the present invention were evaluated. Enzymes were used after preserved at −70° C. HDAC1 or HDAC6 enzyme inhibitory activity of the compound of the present invention was measured using HDAC-Glo™ I/II Assay kit (Promega) according to the following experimental method. The test compound diluted with assay buffer (24 mM Tris-HCl (pH 7.5), 1 mM MgCl2, 0.35 mM KCl, 135 mM NaCl, 0.6 mM Glutathione, 0.01% Tween-20) was added to a 384-well plate by each 2 μL. Then, HDAC1 or HDAC6 enzyme solution diluted with assay buffer was added thereto by each 4 μL, and the plate was incubated at room temperature for 60 min. After incubated, HDAC substrate-Developer solution prepared according to Promega protocol attached to the assay kit was added to the 384-well plate by each 2 μL, and the enzyme reaction was started. After reacting at room temperature for 20 min, luminescence level was measured using plate reader Envision (PerkinElmer). The inhibitory activity of each compound was calculated as a relative activity value when luminescence level in wells without enzyme is considered as 100% inhibition.

SMILES	inhibition at 1 µM [%]
Cc1ncsc1C(=O)N1CCOC[C@@H]1CNC(=O)c1ccc(-c2noc(C(F)(F)F)n2)cn1 [Example 196, N-(((3S)-4-((4-methyl-1,3-thiazol-5-yl)carbonyl)morpholin-3-yl)methyl)-5-(5-(trifluoromethyl)-1,2,4-oxadiazol-3-yl)pyridine-2-carboxamide]	96
N#Cc1ccccc1C(=O)N1CCOC[C@@H]1CNC(=O)c1ccc(-c2noc(C(F)(F)F)n2)cn1 [Example 187, N-(((3S)-4-(2-cyanobenzoyl)morpholin-3-yl)methyl)-5-(5-(trifluoromethyl)-1,2,4-oxadiazol-3-yl)pyridine-2-carboxamide]	94
Cc1csc(C(=O)N2CCOC[C@@H]2CNC(=O)c2ccc(-c3noc(C(F)(F)F)n3)cc2)c1 [Example 73, N-(((3S)-4-((4-methyl-2-thienyl)carbonyl)morpholin-3-yl)methyl)-4-(5-(trifluoromethyl)-1,2,4-oxadiazol-3-yl)benzamide]	98
Cn1ccc(C(=O)N2CCOC[C@H]2CNC(=O)c2ccc(-c3noc(C(F)(F)F)n3)cc2)n1 [Example 137, N-(((3R)-4-((1-methyl-1H-pyrazol-3-yl)carbonyl)morpholin-3-yl)methyl)-4-(5-(trifluoromethyl)-1,2,4-oxadiazol-3-yl)benzamide]	93
O=C(NC[C@H]1COCCN1C(=O)Cc1cccs1)c1ccc(-c2noc(C(F)(F)F)n2)cn1 [Example 201, N-(((3S)-4-(2-thienylacetyl)morpholin-3-yl)methyl)-5-(5-(trifluoromethyl)-1,2,4-oxadiazol-3-yl)pyridine-2-carboxamide]	95
Cc1ncsc1C(=O)N1CCOCC1CNC(=O)c1ccc(-c2noc(C(F)(F)F)n2)s1 (stereo not shown) [Example 238, N-((4-((4-methyl-1,3-thiazol-5-yl)carbonyl)morpholin-3-yl)methyl)-5-(5-(trifluoromethyl)-1,2,4-oxadiazol-3-yl)thiophene-2-carboxamide]	98
O=C(NCC1COCCN1C(=O)c1cccc2c1OCC2)c1ccc(-c2noc(C(F)(F)F)n2)s1 (stereo not shown) [Example 252, N-((4-(2,3-dihydro-1-benzofuran-7-ylcarbonyl)morpholin-3-yl)methyl)-5-(5-(trifluoromethyl)-1,2,4-oxadiazol-3-yl)thiophene-2-carboxamide]	91
O=C(NCC1COCCN1C(=O)c1ccncc1)c1ccc(-c2noc(C(F)(F)F)n2)cc1 (stereo in doubt) [Example 120, N-(((3R)-4-isonicotinoylmorpholin-3-yl)methyl)-4-(5-(trifluoromethyl)-1,2,4-oxadiazol-3-yl)benzamide]	96
O=C(NC[C@@H]1COCCN1C(=O)COc1ccccc1)c1ccc(-c2noc(C(F)(F)F)n2)cc1 [Example 130, N-(((3R)-4-(phenoxyacetyl)morpholin-3-yl)methyl)-4-(5-(trifluoromethyl)-1,2,4-oxadiazol-3-yl)benzamide]	94
Cc1ccsc1C(=O)N1CCOCC1CNC(=O)c1ccc(-c2noc(C(F)(F)F)n2)s1 (stereo not shown) [Example 244, N-((4-((3-methyl-2-thienyl)carbonyl)morpholin-3-yl)methyl)-5-(5-(trifluoromethyl)-1,2,4-oxadiazol-3-yl)thiophene-2-carboxamide]	96
O=C(NCC1COCCN1C(=O)C1CC1)c1ccc(-c2noc(C(F)(F)F)n2)s1 (stereo not shown) [Example 253, N-((4-(cyclopropylcarbonyl)morpholin-3-yl)methyl)-5-(5-(trifluoromethyl)-1,2,4-oxadiazol-3-yl)thiophene-2-carboxamide]	97
Cn1cc(C(=O)N2CCOC[C@@H]2CNC(=O)c2ccc(-c3noc(C(F)(F)F)n3)cc2)cn1 [Example 66, N-(((3S)-4-((1-methyl-1H-pyrazol-4-yl)carbonyl)morpholin-3-yl)methyl)-4-(5-(trifluoromethyl)-1,2,4-oxadiazol-3-yl)benzamide]	88
N#Cc1ccc(C(=O)N2CCOCC2CNC(=O)c2ccc(-c3noc(C(F)(F)F)n3)s2)cc1 (stereo not shown) [Example 219, N-((4-(4-cyanobenzoyl)morpholin-3-yl)methyl)-5-(5-(trifluoromethyl)-1,2,4-oxadiazol-3-yl)thiophene-2-carboxamide]	90
Cc1ccc(C(=O)N2CCOCC2CNC(=O)c2ccc(-c3noc(C(F)(F)F)n3)s2)s1 (stereo not shown) [Example 242, N-((4-((5-methyl-2-thienyl)carbonyl)morpholin-3-yl)methyl)-5-(5-(trifluoromethyl)-1,2,4-oxadiazol-3-yl)thiophene-2-carboxamide]	89
N#CC1(C(=O)N2CCOC[C@H]2CNC(=O)c2ccc(-c3noc(C(F)(F)F)n3)cc2)CC1 [Example 127, N-(((3R)-4-((1-cyanocyclopropyl)carbonyl)morpholin-3-yl)methyl)-4-(5-(trifluoromethyl)-1,2,4-oxadiazol-3-yl)benzamide]	90
O=C(NC[C@H]1COCCN1C(=O)CCc1ccccc1)c1ccc(-c2noc(C(F)(F)F)n2)cn1 [Example 203, N-(((3S)-4-(3-phenylpropanoyl)morpholin-3-yl)methyl)-5-(5-(trifluoromethyl)-1,2,4-oxadiazol-3-yl)pyridine-2-carboxamide]	95
O=C(NC[C@H]1COCCN1C(=O)COc1ccccc1)c1ccc(-c2noc(C(F)(F)F)n2)cc1 [Example 58, N-(((3S)-4-(phenoxyacetyl)morpholin-3-yl)methyl)-4-(5-(trifluoromethyl)-1,2,4-oxadiazol-3-yl)benzamide]	93
O=C(NC[C@@H]1COCCN1C(=O)c1ccc(OCC(F)(F)F)nc1)c1ccc(-c2noc(C(F)(F)F)n2)cc1 [Example 123, N-(((3R)-4-((6-(2,2,2-trifluoroethoxy)pyridin-3-yl)carbonyl)morpholin-3-yl)methyl)-4-(5-(trifluoromethyl)-1,2,4-oxadiazol-3-yl)benzamide]	95
Cc1nn(C)c(C)c1C(=O)N1CCOC[C@H]1CNC(=O)c1ccc(-c2noc(C(F)(F)F)n2)cc1 [Example 139, 4-(5-(trifluoromethyl)-1,2,4-oxadiazol-3-yl)-N-(((3R)-4-((1,3,5-trimethyl-1H-pyrazol-4-yl)carbonyl)morpholin-3-yl)methyl)benzamide]	63
Cn1cc(C(=O)N2CCOC[C@H]2CNC(=O)c2ccc(-c3noc(C(F)(F)F)n3)cc2)cn1 [Example 138, N-(((3R)-4-((1-methyl-1H-pyrazol-4-yl)carbonyl)morpholin-3-yl)methyl)-4-(5-(trifluoromethyl)-1,2,4-oxadiazol-3-yl)benzamide]	85
O=C(NCC1COCCN1C(=O)c1ccc(-c2ccccc2)cc1)c1ccc(-c2noc(C(F)(F)F)n2)s1 (stereo not shown) [Example 223, N-((4-(biphenyl-4-ylcarbonyl)morpholin-3-yl)methyl)-5-(5-(trifluoromethyl)-1,2,4-oxadiazol-3-yl)thiophene-2-carboxamide]	93
O=C(NC[C@@H]1COCCN1C(=O)C1CCc2ccccc2O1)c1ccc(-c2noc(C(F)(F)F)n2)cc1 (stereo partly drawn) [Example 124, N-(((3R)-4-(3,4-dihydro-2H-chromen-2-ylcarbonyl)morpholin-3-yl)methyl)-4-(5-(trifluoromethyl)-1,2,4-oxadiazol-3-yl)benzamide]	90
